Measurements taken from article PMC11950244, “Discovery of novel dual-target inhibitors of LSD1/EGFR for non-small cell lung cancer therapy” (Acta Pharmacologica Sinica, 2025).
pIC50, pKd: −log10 of the molar value. Where two headings read alike, the source gives them in different places.

What was measured:
LSD1 [1] = molecular target: T1, LSD1 (Homo sapiens, UniProt O60341); experiment: LSD1 enzymatic assay; assay type: biochemical; settings: for IC50: read-out: IC50 (μM) against LSD1; for Bottom / Hillslope / Top: concentration-response curve fit parameter;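 on Bottom: percent inhibition of LSD1 activity from the fitted dose-response curve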;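 on Top: percent inhibition of LSD1 activity from the fitted dose-response curve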
Procedure: A total of 12 compounds were purchased from J&K Scientific Ltd. (Shanghai, China). The biological experiments of inhibiting the enzymatic activity of LSD1 by 12 test compounds were conducted by Pharmaron (Beijing, China). Each compound was serially diluted 4-fold in 100% dimethyl sulfoxide (DMSO) from a starting DMSO stock concentration of 20 mM to obtain 10 concentration doses. Seclidemstat was used as a positive control. The diluted compounds were added to the LSD1 assay buffer (50 mM Tris-HCl, pH 7.5, and 1% DMSO) and incubated with LSD1 for 30 min at room temperature. The peptide substrate was then added to initiate the reaction, and the mixture was further incubated for 60 min at room temperature. The reaction was stopped by adding the stop solution, followed by the addition of the detection solution containing protein-A-Eu, streptavidin-d2, and anti-Histone H3 (dimethyl K9) antibody. […] The IC50 was calculated using a nonlinear regression (dose response – variable slope) by fitting the inhibition ratio and log of compound concentrations using Graphpad 8.0.

[2] = molecular target: double-mutant EGFR (T790M/L858R) (Homo sapiens, UniProt P00533, L858R/T790M); experiment: EGFR kinase assay (HTRF), double mutant; assay type: biochemical
Procedure: (§1) The biological experiments of inhibiting the activity of EGFR by test compounds were also performed by Pharmaron (Beijing). To conduct the kinase assay, the following steps were followed:
(§2) % Inhibition is calculated as follow: %Inhibition=1−SINGALcmpd−SINGALave−pc/SINGALave−vc−SINGALave−pc×100
(§3) SINGALcmpd = singal for compound being tested
(§4) SINGALave_pc = singal for positive controls
(§5) SINGALave_vc = singal for vehicle controls

[3] = molecular target: triple-mutant EGFR (L858R/T790M/C797S) (Homo sapiens, UniProt P00533, C797S/L858R/T790M); experiment: EGFR kinase assay (HTRF), triple mutant; assay type: biochemical; settings: for IC50: read-out: EGFR kinase assay IC50 (μM) L858R/T790M/C797S
Procedure: as §1, §2, §3, §4, §5

[4] = tested on: BaF3 cells stably expressing EGFR (L858R/T790M/C797S); experiment: BaF3 cell assay (CTG luminescence); settings: Mus musculus, BaF3, read-out: BaF3 cell assay IC50 (μM) L858R/T790M/C797S
LSD1 [5] = molecular target: T1, LSD1; experiment: SPR binding assay (Biacore T200)
Procedure: Surface plasmon resonance (SPR) was employed to evaluate direct binding between compounds and LSD1 using Biacore T200 optical biosensor (Biacore Life Sciences, GE Healthcare). LSD1 was covalently attached to CM5 sensor chip via amine coupling. Binding experiments were conducted at 15 °C in a buffer containing 10 mM HEPES (pH 7.4), 150 mM NaCl, 1% DMSO, and 0.05% Tween, with a flow rate of 30 μL/min. Compounds were serially diluted in the same buffer and injected over the prepared surfaces for 15–25 s at increasing concentrations. Sensorgrams were corrected by subtracting signals from both an untreated reference channel and blank injections. Data analysis was performed using Biacore T200 evaluation software (GE Healthcare).

[6] = tested on: PC9 cells (with EGFR mutant); experiment: Cell proliferation assay (cell number counting), PC9; assay type: cell-based
Procedure: (§6) Lung cancer H460, H1299, PC9, and H1975 cells were purchased from Procell (Wuhan, China) and cultured in RPMI-1640 medium (Thermo Fisher Scientific, MA, USA) supplemented with 10% fetal bovine serum (FBS, ExCell Bio, Shanghai, China). For cell proliferation assay, the cells were seeded in a 24-well plate (0.5 × 10^4 cells/well), then treated with L-1 with increasing concentrations (0, 2.5, 5, 10, 20, 40 μM) or vehicle alone. Cell numbers were counted using try-pan blue exclusion on the fourth day.

[7] = tested on: H1975 cells (with EGFR mutant); experiment: Cell proliferation assay (cell number counting), H1975; assay type: cell-based
Procedure: as §6

[8] = tested on: H460 cells (with EGFR wild type); experiment: Cell proliferation assay (cell number counting), H460; assay type: cell-based; settings: 0-40 μM, counted on the fourth day
Procedure: as §6

[9] = tested on: H1299 cells (with EGFR wild type); experiment: Cell proliferation assay (cell number counting), H1299; assay type: cell-based; settings: 0-40 μM, counted on the fourth day
Procedure: as §6

[10] = tested on: H1975 cells-derived xenograft (CDX); experiment: H1975 cell-derived xenograft (CDX) mouse model, tumor formation; assay type: in vivo, nude mice; settings: 75 and 150 mg/kg i.p. every two days, compared to control group
Procedure: (§7) Nude mice (nu/nu, female, 4–6-week-old) were purchased from Charles River (Beijing, China) and subcutaneously injected with 2 × 10^6 H1975 cells harboring on the right flank. Tumor growth was recorded by measurement of two perpendicular diameters using the equation: π/6 × length × width^2. To explore the effect of L-1 on tumorigenicity in lung cancer, when tumor volumes reached approximately 50 mm^3, mice received either vehicle control, L-1 (75 mg/kg) and L-1 (150 mg/kg), and they were administered every two days by i.p. injection. The mice were sacrificed, and the tumors were excised, imaged and weighed after inhibitor treatments. Statistical analyses have been done by comparison in relation to the control group with a two-tailed unpaired Student’s t test. The animal experiments were performed according to the institutional ethical guidelines approved by the Laboratory Animal Ethics Committee Nankai University.

[11] = Body weight of H1975 xenograft nude mice; assay type: in vivo; settings: 75 and 150 mg/kg i.p. every two days
Procedure: as §7

Ki67 = Ki67 immunohistochemical staining of CDX tumors; assay type: in vivo, nude mice; settings: CDX tumor, L-1 treatment group
Procedure: Immunohistochemistry was performed on paraffin-embedded sections. Tissue sections were dewaxed and rehydrated using standard protocol. Antigen retrieval was performed by boiling samples in citrate buffer for 45 min. Endogenous peroxidase activity was inhibited by using 3% hydrogen peroxidase. Sections were blocked in 3% BSA in PBS and incubated in primary antibody (Ki67, CST, MA, USA) overnight at 4 °C. Then the secondary antibody (Goat anti-rabbit IgG (H + L) HRP, Bioworld, OH, USA) was incubated at room temperature for 1.5 h and developed using DAB. Sections were counterstained with hematoxylin.

[12] = tested on: LSD1/EGFR relevant downstream signaling pathways; experiment: Western blot of signaling pathway proteins in the H1975 CDX model; assay type: in vivo, nude mice
Procedure: Cells were lysed with lysis buffer (1.5 M NaCl, 1 M Hepes, 20% NP40, 0.1 M Na pyrophosphate, 0.1 M NaF, 0.1 M Na3VO4, 0.2 M glycerol phosphate) on ice for 30 min and then centrifuged at 12,000 r/min for 15 min at 4 °C. Protein samples were loaded into 12% SDS-PAGE, then separated by running for different voltage, and transferred onto PVDF membranes (Millipore, MA, USA). The membranes were blocked with 5% non-fat milk for 2 h and then incubated overnight at 4 °C or at room temperature for 2 h with the primary antibody and 1 h at room temperature with secondary antibody. Signals were detected using Luminol substrate solution (Millipore, MA, USA).

EGFR-mutant NSCLC cells = tested on: EGFR-mutant NSCLC cells; set-up: method as in Hu et al. [61]; settings: ref Hu et al. [61]; cited from earlier work
EGFR wild-type cells = tested on: EGFR wild-type cells; set-up: method as in Hu et al. [61]; settings: ref Hu et al. [61]; cited from earlier work
[13] = 0-40 μM, counted on the fourth day
[14] = LSD1 knockdown compared to control cells

triple-mutant EGFR (L858R/T790M/C797S), sequence (P00533 25-1210 T790M/C797S/L858R): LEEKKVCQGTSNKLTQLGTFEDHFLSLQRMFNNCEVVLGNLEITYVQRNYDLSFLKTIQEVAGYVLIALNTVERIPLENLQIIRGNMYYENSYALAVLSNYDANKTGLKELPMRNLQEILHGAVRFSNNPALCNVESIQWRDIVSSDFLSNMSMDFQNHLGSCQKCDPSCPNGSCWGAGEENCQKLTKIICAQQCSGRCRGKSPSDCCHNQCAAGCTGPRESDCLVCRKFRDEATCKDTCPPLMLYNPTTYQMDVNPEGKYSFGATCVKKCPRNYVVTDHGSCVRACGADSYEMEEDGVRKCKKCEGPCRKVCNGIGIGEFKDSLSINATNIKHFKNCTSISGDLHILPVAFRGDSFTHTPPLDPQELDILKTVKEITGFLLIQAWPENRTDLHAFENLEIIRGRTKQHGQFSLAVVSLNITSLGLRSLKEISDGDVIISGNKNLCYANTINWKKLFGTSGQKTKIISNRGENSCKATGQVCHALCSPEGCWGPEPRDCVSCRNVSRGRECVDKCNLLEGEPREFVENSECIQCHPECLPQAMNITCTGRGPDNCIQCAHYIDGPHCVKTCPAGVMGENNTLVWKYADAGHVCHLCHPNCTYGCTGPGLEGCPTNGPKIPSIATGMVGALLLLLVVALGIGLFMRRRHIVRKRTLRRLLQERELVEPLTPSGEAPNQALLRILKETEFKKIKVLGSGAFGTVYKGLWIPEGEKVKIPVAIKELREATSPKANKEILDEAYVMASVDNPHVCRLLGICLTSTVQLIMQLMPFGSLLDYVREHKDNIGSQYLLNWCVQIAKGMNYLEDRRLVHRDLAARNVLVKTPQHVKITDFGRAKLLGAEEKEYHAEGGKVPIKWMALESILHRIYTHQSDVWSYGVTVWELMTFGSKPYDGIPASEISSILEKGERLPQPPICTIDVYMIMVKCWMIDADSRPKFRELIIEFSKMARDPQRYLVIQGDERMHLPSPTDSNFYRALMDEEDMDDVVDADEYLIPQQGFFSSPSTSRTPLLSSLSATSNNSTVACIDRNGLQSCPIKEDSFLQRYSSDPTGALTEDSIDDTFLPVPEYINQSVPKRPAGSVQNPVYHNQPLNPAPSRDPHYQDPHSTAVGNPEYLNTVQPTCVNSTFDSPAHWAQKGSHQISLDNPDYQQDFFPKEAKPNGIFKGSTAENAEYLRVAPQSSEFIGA
double-mutant EGFR (T790M/L858R), sequence (P00533 25-1210 T790M/L858R): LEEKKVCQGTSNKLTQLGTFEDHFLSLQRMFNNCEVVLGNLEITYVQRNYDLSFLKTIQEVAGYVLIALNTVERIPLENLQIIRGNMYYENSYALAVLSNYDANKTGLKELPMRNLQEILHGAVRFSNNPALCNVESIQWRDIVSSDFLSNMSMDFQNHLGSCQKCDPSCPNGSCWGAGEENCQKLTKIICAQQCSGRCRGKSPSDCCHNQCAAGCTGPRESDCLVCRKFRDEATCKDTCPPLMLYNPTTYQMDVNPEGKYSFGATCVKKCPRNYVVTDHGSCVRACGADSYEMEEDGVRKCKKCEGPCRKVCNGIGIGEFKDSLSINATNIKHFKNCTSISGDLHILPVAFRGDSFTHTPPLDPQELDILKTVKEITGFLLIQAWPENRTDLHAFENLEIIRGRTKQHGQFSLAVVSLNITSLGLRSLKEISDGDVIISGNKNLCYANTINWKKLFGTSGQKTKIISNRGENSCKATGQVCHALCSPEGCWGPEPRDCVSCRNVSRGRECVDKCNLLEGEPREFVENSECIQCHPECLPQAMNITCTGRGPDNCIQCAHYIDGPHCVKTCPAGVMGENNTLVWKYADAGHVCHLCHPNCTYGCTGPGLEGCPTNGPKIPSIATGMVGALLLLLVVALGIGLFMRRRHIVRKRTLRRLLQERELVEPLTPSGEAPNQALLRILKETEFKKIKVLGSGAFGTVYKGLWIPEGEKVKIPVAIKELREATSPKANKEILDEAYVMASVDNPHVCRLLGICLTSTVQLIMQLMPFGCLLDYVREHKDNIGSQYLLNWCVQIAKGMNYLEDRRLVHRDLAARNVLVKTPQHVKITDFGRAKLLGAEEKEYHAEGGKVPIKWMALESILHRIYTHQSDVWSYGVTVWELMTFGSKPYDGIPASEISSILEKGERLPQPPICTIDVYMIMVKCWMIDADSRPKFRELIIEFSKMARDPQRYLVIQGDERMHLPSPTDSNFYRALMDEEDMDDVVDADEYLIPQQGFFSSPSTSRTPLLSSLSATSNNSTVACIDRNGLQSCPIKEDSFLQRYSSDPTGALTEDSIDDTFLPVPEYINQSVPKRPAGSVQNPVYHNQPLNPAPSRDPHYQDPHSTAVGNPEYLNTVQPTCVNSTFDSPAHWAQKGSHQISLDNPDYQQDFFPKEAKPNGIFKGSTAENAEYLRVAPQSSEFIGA

Row | SMILES | IC50 (LSD1 [1]) | Relative potency % (LSD1 [1]) | Bottom (LSD1 [1]) | Top (LSD1 [1]) | IC50 [3] | IC50 [4] | further results
1 | Cc1ccc(-c2noc(-c3ccc(=O)n(CC(=O)Nc4ccc(C)cc4Br)c3)n2)cc1 [D-11] | > 100 µM |  |  |  |  |  | 
2 | COc1cc(Cl)c(C)cc1NC(=O)Cn1cc(-c2nc(-c3ccc(C)cc3)no2)ccc1=O [D-12] | > 100 µM |  |  |  |  |  | 
3 | CCCCNC(=O)Cn1cc(-c2nc(-c3ccc(C)cc3)no2)ccc1=O [D-13] | > 100 µM |  |  |  |  |  | 
4 | Cc1ccc(-c2noc(-c3ccc(=O)n(CC(=O)NCc4ccccc4)c3)n2)cc1 [D-14] | 28.3 µM | 0.5% | −1.64 | 48.09 | 86.7 µM | 2.45 µM | Hillslope (LSD1 [1]): 2.53; IC50 [2]: 73.9 µM
5 | COC(=O)c1sccc1NC(=O)Cn1cc(-c2nc(-c3ccc(C)cc3)no2)ccc1=O [D-15] | > 100 µM |  |  |  |  |  | 
6 | Cc1noc(-c2ccc(=O)n(CC(=O)Nc3ccccc3Br)c2)n1 [D-16] | 28.7 µM | 0.5% | −2.33 | 51.97 | 59.6 µM | 2.72 µM | 
7 | CCCc1noc(-c2ccc(=O)n(CC(=O)Nc3ccccc3Br)c2)n1 [D-17] | 19.8 µM | 0.8% | −0.07 | 64.23 | > 100 µM |  | IC50 [2]: > 100 µM
8 | CC(C)c1noc(-c2ccc(=O)n(CC(=O)Nc3ccccc3Br)c2)n1 [D-18] | > 100 µM |  |  |  |  |  | 
9 | CCN(CC)c1ccc(/C=C2/C(=O)NC(=O)N(c3ccc(Cl)cc3)C2=O)c(O)c1 [L-1] |  | 3.7% | −4.65 | 51.52 |  | 5.58 µM | pIC50 (LSD1 [1]): 5.20; Hillslope (LSD1 [1]): 1.26; Binding to LSD1 by SPR (in words) (LSD1 [5]): specific and reversible binding; pKd (LSD1 [5]): 4.74; pIC50 [3]: 5.30; cell proliferation, PC9 [6, 13]: significantly inhibited; efficacy after LSD1 knockdown, PC9 [6, 14]: less effective; cell proliferation, H1975 [7, 13]: significantly inhibited; efficacy after LSD1 knockdown, H1975 [7, 14]: less effective; cell proliferation, H460 [8]: not have effect; cell proliferation, H1299 [9]: not have effect; tumor growth rate [10]: slower growth rate; tumor size [10]: smaller tumor size; tumor weight [10]: lighter tumor weight; body weight of nude mice [11]: did not affect; level of Ki67 (IHC) (Ki67): significantly suppressed; LSD1/EGFR relevant downstream signaling pathways (Western blot) [12]: could inhibit
10 | Cc1ccc(-c2noc(-c3ccc(=O)n(CC(=O)Nc4ccccc4Br)c3)n2)cc1 [L-6] | 9.26 µM | 2.5% | −11.46 | 55.47 | 28.5 µM | 8.99 µM | Hillslope (LSD1 [1]): 1.86; Binding to LSD1 by SPR (in words) (LSD1 [5]): specific and reversible binding; pKd (LSD1 [5]; SPR, 15 °C, read-out: dissociation constant (KD)): 4.58; IC50 [2]: 26.5 µM
11 | C=CC(=O)Nc1cc(Nc2nccc(-c3cn(C)c4ccccc34)n2)c(OC)cc1N(C)CCN(C)C [Osimertinib] |  |  |  |  |  |  | effect on EGFR-mutant cells (EGFR-mutant NSCLC cells): significant inhibitory effect; effect on EGFR wild-type cells (EGFR wild-type cells): less pronounced impact
12 | C/C(=N\NC(=O)c1cccc(S(=O)(=O)N2CCN(C)CC2)c1)c1cc(Cl)ccc1O [Seclidemstat, seclidemstat, reference compound] |  |  |  |  |  | 0.98 µM | pIC50 (LSD1 [1]): 6.64; Inhibition of LSD1 enzymatic activity (LSD1 [1]; at 10 μM): complete inhibition; Inhibitory activity against EGFR double mutant (in words) [2]: does not exhibit inhibitory activity; Inhibitory activity against EGFR triple mutant (in words) [3]: does not exhibit inhibitory activity
